# Results taken from patent US20240172747A1, “USE OF SORBIC ACID AND SALTS THEREOF AS A NEMATOCIDE” (GONELLA INVENT SOCIETA' A RESPONSABILITA' LIMITATA […], priority 2021, published 2024).
# Values joined by “and” are separate entries in the source; they are usually repeats but may differ in a detail not shown here. Identical values can stand only once.
# How the values were obtained:
# Meloidogyne J2 larvae = assay: Motility/mortality test on Meloidogyne J2 larvae in suspension; format: in vivo; conditions: single replicates; for READING % IMMOBILE J2 @ 2 H: 2 h exposure; for % DEAD J2 @ 24 H: 24 h exposure
# Experimental: Extraction of root-knot nematodes taken from soil cultivated with basil (Ocimum basilicum) with strong infestation (J2 larvae) from about 500 cc of soil by means of a wool-paper filter (EPPO Bulletin 13,2013) and concentration in distilled water.
# The Tests were established by adding an amount of stock solution to one ml of nematode suspension, so as to obtain the final established concentrations.
# Nematodes motility parameters were evaluated after 2 h and after 24 h exposure of the J2 larvae to the nematocidal substance.
# In the first test, the count was carried out by microscopic observation of immobile nematodes after 2 hours exposure to the product, to evaluate a possible […] effect of the substance. In the second test, the count was carried out by microscopic observation of the nematodes considered dead with strong signs of tissue degeneration (thickening and blistering in the nematode body accompanied by the final folding of the body at right angle).
# [1] = tested on: larvae of the genus Meloydogine, Heterodera and Globodera; conditions: laboratory tests
# [2] = tested on: Meloidogyne incognita eggs
# Experimental: In order to evaluate the efficacy in containing the root-knot nematode Meloidogyne incognita, several in vitro experimental tests were carried out using a sorbic acid solution containing 1 mg/ml of active substance at 98% purity. The average of the tests is reported.
# This test concentration was tested on unsegmented and embryonated eggs of M. incognita.
# The tests carried out were developed in vitro using double concave glass lenses, by introducing 2 ml of the test solution containing 1 mg/ml of sorbic acid, or sterile water in the case of the control. The incubation took place at a room temperature of 22° C., in the dark. The population of M. incognita was from plants raised in an open field of tomatoes (Solanum lycopersicum).
# Unsegmented and embryonated eggs: the eggs were collected from the ovisacs and placed in a double concave glass lens in the presence of the solution to be tested.
# Counts of hatched larvae were carried out for 7 days with daily counting and microscopic observation.
# nematodes = conditions: laboratory test in a jar, after application
# Description: A dose ranging from 0.0001% to 0.001% is considered a “sub-lethal” or “nematostatic” dose, and therefore is a dose which may not kill the nematode but inhibits its mobility and pest capacity.
# insects or mites = conditions: laboratory tests
# [3] = OECD Test Guideline 402; cited from earlier work
# [4] = OECD Test Guideline 403; cited from earlier work
# [5] = 25° C.; cited from earlier work
# M. incognita nematodes = tested on: M. incognita nematodes
# Description: The trial was followed by a test center (third body) in the Vittoria area (RG) in greenhouses with continuous cycles of courgette (Cucurbita pepo) subjected to strong pressure of M. incognita nematodes. […] First application at day 1 after transplantation (DAT), second application at day 7 DAT, third application at day 21 DAT.
# The follow-up was scheduled at day 45 (FIG. 5 and FIG. 6) and day 90 after the first treatment. […] Following this screening trial, new large-scale tests will begin to establish optimal doses, modes and volume of distribution. From Table 3 below, it was possible to evaluate the % of nematode attack with a count of the damage present on the root system (galls).
# [6] = TEST 1: Potassium Sorbate (80% purity) 250 μg/ml
# [7] = TEST 2: Potassium Sorbate 500 μg/ml
# [8] = TEST 3: Potassium Sorbate 1 mg/ml
compound,measurement,setting,value
"Abamectin [REFERENCE, reference compound]",READING % IMMOBILE J2 @ 2 H,Meloidogyne J2 larvae; Reference: Abamectin 90 μg/ml,100% and 99% (2×) and 98%
same,% DEAD J2 @ 24 H,Meloidogyne J2 larvae; Reference: Abamectin 90 μg/ml,100% (3×) and 99%
"C/C=C/C=C/C(=O)[O-].C/C=C/C=C/C(=O)[O-].[Ca+2] [Calcium Sorbate, calcium sorbate]","effect on larvae of the genus Meloydogine, on Heterodera and Globodera",[1],had an effect
"C/C=C/C=C/C(=O)[O-].[Na+] [Sodium Sorbate, sodium sorbate]","effect on larvae of the genus Meloydogine, on Heterodera and Globodera",[1],had an effect
"C/C=C/C=C/C(=O)O [Sorbic Acid, 2,4-hexadienoic acid]","hatched larvae, Day 1 DAT","[2]; 1 mg/ml sorbic acid (98% purity), 22° C., dark, Day 1, average of tests",0
same,"hatched larvae, Day 2 DAT","[2]; 1 mg/ml sorbic acid, 22° C., dark, Day 2, average of tests",0%
same,"hatched larvae, Day 3 DAT","[2]; 1 mg/ml sorbic acid, 22° C., dark, Day 3, average of tests",0%
same,"hatched larvae, Day 4 DAT","[2]; 1 mg/ml sorbic acid, 22° C., dark, Day 4, average of tests",0%
same,"hatched larvae, Day 5 DAT","[2]; 1 mg/ml sorbic acid, 22° C., dark, Day 5, average of tests",0%
same,"hatched larvae, Day 6 DAT","[2]; 1 mg/ml sorbic acid, 22° C., dark, Day 6, average of tests",1%
same,"hatched larvae, Day 7 DAT","[2]; 1 mg/ml sorbic acid, 22° C., dark, Day 7, average of tests",3%
same,efficacy on egg embryogenesis and larvae,"[2]; 1 mg/ml sorbic acid, in vitro","allowing the inhibition of egg embryogenesis and excellent action on larvae, both free and included in ovisacs"
same,nematostatic effect: number of immature forms,nematodes,a greater number of immature forms
same,insecticidal or acaricidal activity,insects or mites,no insecticidal activity (insect kingdom) or acaricidal activity has been found
same,"effect on larvae of the genus Meloydogine, on Heterodera and Globodera",[1],had an effect
same,Lethal Dose 50: LD50,[3],> 3000 mg/kg
same,Lethal Concentration 50: LC50,[4],5.1 mg·L
same,"partition coefficient: n-octanol/water, log Pow",[5],1.32
"C/C=C/C=C/C(=O)[O-].[K+] [Potassium Sorbate, potassium sorbate]",READING % IMMOBILE J2 @ 2 H,Meloidogyne J2 larvae; [6],10% and 5% and 7% and 2%
same,% DEAD J2 @ 24 H,Meloidogyne J2 larvae; [6],15% and 12% and 18% and 10%
same,READING % IMMOBILE J2 @ 2 H,Meloidogyne J2 larvae; [7],40% and 38% and 45% and 43%
same,% DEAD J2 @ 24 H,Meloidogyne J2 larvae; [7],80% and 76% and 75% (2×)
same,READING % IMMOBILE J2 @ 2 H,Meloidogyne J2 larvae; [8],75% (2×) and 78% and 80%
same,% DEAD J2 @ 24 H,Meloidogyne J2 larvae; [8],98% and 99% and 100% and 96%
same,Average weight of a courgette,M. incognita nematodes; 10 kg/ha,0.24 kg
same,"Average production of a plant, No. courgettes","M. incognita nematodes; 10 kg/ha, mean of 20 plants",15.75
same,"Average production of a plant, Weight in kg","M. incognita nematodes; 10 kg/ha, mean of 20 plants",3.78 kg
same,toxicity or damage of the root system,"M. incognita nematodes; field application, courgette",without leading to toxicity or damage of the root system
same,"effect on larvae of the genus Meloydogine, on Heterodera and Globodera",[1],had an effect
